Measured values: PMC8586700 (Frontiers in Pharmacology, 2021)
Like-named read-outs stand apart in the source and are kept apart here.

What was measured:
[1] = Solubility in solvents and vehicles; type: physicochemical
From the text: DMSO is a universal organic solvent that is mutually soluble with most solvents and has a protective effect on red blood cells, platelets, bone marrow and various tissue cells during cryopreservation ([Willson et al., 1965]).

[2] = Repeated administration, drug concentrations of plasma and brain; type: in vivo, SD rats; details: for Detection in brain tissue: after repeated administration; for Mean concentrations±sd in brain after multiple doses: brain homogenate; for Effect on plasma concentration of DHC: repeated administration with CUR
Experimental: (§1) Plasma or brain homogenate of SD rats was taken 50 μL, internal standard solution of 50 μL and protein precipitator of 150 μL were added. After eddy oscillation for 3 min, supernatant was separated by centrifugation.
The concentration of drugs in plasma and brain homogenate after repeated administration was determined according to the same grouping and administration method. The loading dose of 200 mg kg^−1 was given for the first time and half doses for four consecutive days.
(§2) Plasma was collected by centrifugation of blood at 3000 RPM for 10min, and stored at -80 °C. Brain tissue of SD rat was dissected, weighed and added with normal saline at a volume of 2 ml g^−1. After homogenating brain tissue for 3 min by a homogenizer at 14,000 RPM, the supernatant was collected after centrifugation at 12,000 RPM for 10 min.

[3] = parameters: method as in Yang et al., 2007; details: ref Yang et al., 2007; cited from earlier work
[4] = Stability experiment in plasma and brain homogenate samples; type: in vitro ADME, SD rats; details: for Recoveries after being kept at room temperature for 12 h: plasma samples
Experimental: Three blank samples of plasma and brain homogenate of SD rats were added into the mixed standard solution. The stability experiment included placing at room temperature for 12 h, repeatedly freeze-thaw for three times and frozen for 15 days.

rats = tested on: rats; parameters: method as in Willson et al., 1965; details: intragastric administration, ref Willson et al., 1965; cited from earlier work
[5] = Pharmacokinetic experiment, single intragastric administration, plasma by HPLC-UV; type: in vivo, SD rats; details: for concentration at 40 min / concentration at 60 min / concentration at 90 min / concentration at 150 min / concentration at 210 min: SD (Sprague-Dawley); for concentration at 40 min / concentration at 60 min / concentration at 90 min / concentration at 150 min / concentration at 210 min / concentration at 20 min / concentration at 270 min / concentration at 330 min / AUC / Cmax / half-life / Tmax: rat, plasma, po; for concentration at 20 min / concentration at 270 min / concentration at 330 min: SD; for AUC / Cmax / half-life / Tmax: Sprague-Dawley, 150 mg/kg, PIP or ILE 150 mg kg^−1 oral together with CUR 200 mg kg^−1; for AUC: read-out: AUC(0-tn) (converted); for Cmax: read-out: Cmax; for half-life: read-out: T1/2(el); for Tmax: read-out: Tmax (converted); for Effect of combined administration with CUR on plasma concentration of DHC: single administration, drug-time curve
Experimental: An Agilent 1200 HPLC system was used. […] The flow rate was set at 1 ml min^−1 and detection wavelength was 420, 340 and 323 nm. Injection volume was 5 μL. The column temperature was set at 30°C.
as §1
Blood samples were collected from tail vein at 20 min, 40 min, 1, 1.5, 2.5, 3.5, 4.5, and 5.5 h after intragastric administration.
as §2

[6] = ILE compared with PIP at the same dose
[7] = Mean concentrations ±sd, ILE, Group C (CUR 200 mg kg^−1 and ILE 150 mg kg^−1 oral)
[8] = Group B (CUR 200 mg kg^−1 and PIP 150 mg kg^−1 oral), read-out: Mean concentrations ±sd, PIP

Solubility in DMSO [1] | Detection in brain tissue [2] | Recoveries after repeated freezing-thawing for three times ([4]; brain homogenate) | Recoveries after repeated freezing-thawing for three times ([4]; plasma) | Recoveries after being kept at room temperature for 12 h [4] | Mean concentrations±sd in brain after multiple doses [2] [ng/mL] | AUC [5] [ng·h/mL] | Cmax [5] [ng/mL] | half-life [5] [h] | Tmax [5] [h] | SMILES | Effect on plasma concentration of DHC [2] | Effect of combined administration with CUR on plasma concentration of DHC [5] | other results
well dissolved | could not be detected | over 100% | over 100% | less than 30% |  |  |  |  |  | COc1cc(/C=C/C(=O)CC(=O)/C=C/c2ccc(O)c(OC)c2)ccc1O [CUR, Curcumin] |  |  | Solubility in EtOH and glycerin [1]: slightly soluble; Solubility in water and various plant extracted oils [1]: insoluble; Oral bioavailability [3]: 1%; recovery at 12 h ([4]; SD, rat, brain homogenate samples, read-out: Recovery after 12 h placement at room temperature): < 15%
 |  |  |  |  |  |  |  |  |  | C[S+](C)[O-] [DMSO, dimethyl sulfoxide] |  |  | Adverse reactions in the experimental animals ([2]; DMSO as solvent of intragastric administration for five consecutive days, SD rats): no adverse reactions occurred; LD50 (rats): 28300 mg/kg
well dissolved | could be detected | over 100% | over 100% |  | 1600 ± 200 | 15400 | 5500 ± 2000 | 1.67 ± 0.287 | 3.07 | O=C(/C=C/c1ccc2c(c1)OCO2)N1CCCCC1 [ILE, Ilepcimide, reference compound] | could both increase the plasma concentration of DHC | could increase plasma concentration of DHC | AUC(0-tn) increased by [5, 6]: 32.1%; T1/2 decreased by [5, 6]: 40.2%; Tmax increased by [5, 6]: 1.7 times; concentration at 40 min [5, 7]: 1600 ± 100 ng/mL; concentration at 60 min [5, 7]: 2000 ± 500 ng/mL; concentration at 90 min [5, 7]: 2800 ± 900 ng/mL; concentration at 150 min [5, 7]: 5500 ± 1900 ng/mL; concentration at 210 min [5, 7]: 3400 ± 500 ng/mL; concentration at 20 min [5, 7]: 1300 ± 800 ng/mL; concentration at 270 min [5, 7]: 2200 ± 400 ng/mL; concentration at 330 min [5, 7]: 1200 ± 800 ng/mL
well dissolved | could be detected | over 100% | over 100% | lower than 75% | 2100 ± 100 | 11700 | 4200 ± 700 | 2.79 ± 0.59 | 1.13 | O=C(/C=C/C=C/c1ccc2c(c1)OCO2)N1CCCCC1 [PIP, Piperine, reference compound] | could both increase the plasma concentration of DHC | no obvious effect | Mean concentrations±sd, PIP in plasma after multiple doses ([2]; Group II: CUR and PIP): 2400 ± 500 ng/mL; Recovery after 12 h placement at room temperature ([4]; brain homogenate samples): only showed slight decrease; concentration at 40 min [5, 8]: 2100 ± 700 ng/mL; concentration at 60 min [5, 8]: 4200 ± 700 ng/mL; concentration at 90 min [5, 8]: 2600 ± 500 ng/mL; concentration at 150 min [5, 8]: 2400 ± 900 ng/mL; concentration at 210 min [5, 8]: 2200 ± 500 ng/mL; concentration at 20 min [5, 8]: 1400 ± 400 ng/mL; concentration at 270 min [5, 8]: 1700 ± 400 ng/mL; concentration at 330 min [5, 8]: 1400 ± 200 ng/mL
